Results from paper PMC11441021, “Novel hybrids of 1,2,3-triazole-benzoxazole: design, synthesis, and assessment of DprE1 enzyme inhibitors using fluorometric assay and computational analysis” (Journal of Enzyme Inhibition and Medicinal Chemistry, 2024).
In brackets after ≈: the same amount, converted by molar mass. Several values for one entry are separate records, joined by “and”; a condition that tells them apart may be missing. Equal entries are not always repeated.

How the values were obtained:
[1] = test system: mouse fibroblast 3T3 cells; experiment: MTT cytotoxicity assay on mouse fibroblast 3T3 cells; type: cell-based; details: for IC50: NIH3T3, MTT assay, read-out: 3T3 cell IC50; for Selectivity index: IC50 (μg/mL)/MIC (μg/mL), 3T3 cells vs Mtb H37Rv
DprE1 = DprE1 (Mycobacterium tuberculosis, UniProt P9WJF1); experiment: DprE1 inhibition (resazurin redox indicator, fluorometric) assay; type: biochemical; details: purified DprE1, GGPR substrate
Method: For the identification and validation of the biological target for this new series of 1,2,3-triazole-linked benzoxazoles, compounds displaying antimycobacterial activity below 6 μg/mL and showcasing diverse side chains were assessed against the purified DprE1 protein (Table 1). The assessment of the compounds’ ability to inhibit DprE1 activity was conducted through an in-vitro assay. This involved purified DprE1 protein, geranylgeranyl-phosphoryl-β-d-ribose (GGPR) substrate, and resazurin as a redox indicator. The synthesised molecules were tested for their impact on DprE1 activity within this experimental setup. The initial rates of activity, characterised by increasing concentrations of the compound, were measured and compared to the control compound TCA-1. The half maximal inhibitory concentration (IC50) was then calculated for each synthesised compound, quantitatively assessing their inhibitory effect. […] The promising results prompted us to delve deeper into these compounds through initial assessments of their druggability profiles and validation via computational studies. This approach aims to enhance our understanding of the structural features involved in the inhibition mechanism of the DprE1 enzyme, utilising docking and molecular dynamics (MD) simulation studies.
A redox indicator assay was conducted following a previously described protocol, utilising the reduction of resazurin to its fluorescent form, resorufin. In this assay, the DprE1 cofactor FAD undergoes reduction to FADH2, while the C-2 hydroxyl group of the substrate GGPR is oxidised to form a keto-intermediate known as geranylgeranylphosphoryl-β-d-2′-keto-erythro-penta-furanose (GGPX)[11]^,[40]. The inhibition of DprE1 was assessed using an activity assay, with the half maximal inhibitory concentration (IC50) determined for each tested compound. Intermediate plates of compounds were prepared in V-bottomed 96-well plates, where the compounds were serially diluted twofold in DMSO. Subsequently, 1 µL of each compound dilution was pipetted in triplicate into Greiner black-bottomed 384 plates. The master mix (19 µL), comprising 5 µM DprE1, 50 mM Hepes pH 7.5, 100 mM NaCl, and 100 µM resazurin, was added to the compounds in the plate. The assay was initiated with 5 µL of 1 mM GGPR using the pump on the POLARstar Omega plate reader (BMG Labtech). Emission was measured at 590 nm with excitation at 530 nm at 37 °C[41]^. IC50 values were calculated using Prism GraphPad, fitting the data to a four-parameter dose–response curve. The initial rates of activity were used for the calculations, and fluorescence units were converted to µM resazurin reduced by referencing a resorufin standard curve.

[2] = test system: M. tuberculosis H37Rv strain; experiment: Resazurin microtiter assay (REMA), MIC against Mtb H37Rv; type: cell-based, Mycobacterium tuberculosis; details: MTB H37Rv (ATCC 27294), 7 days incubation, text calls it MIC; for MIC50: Mycobacterium tuberculosis, ATCC 27294 / H37Rv, 168 h
[3] = Mus musculus, mouse fibroblast 3T3 cells, cytotoxicity

Chain of DprE1 (P9WJF1 whole entry): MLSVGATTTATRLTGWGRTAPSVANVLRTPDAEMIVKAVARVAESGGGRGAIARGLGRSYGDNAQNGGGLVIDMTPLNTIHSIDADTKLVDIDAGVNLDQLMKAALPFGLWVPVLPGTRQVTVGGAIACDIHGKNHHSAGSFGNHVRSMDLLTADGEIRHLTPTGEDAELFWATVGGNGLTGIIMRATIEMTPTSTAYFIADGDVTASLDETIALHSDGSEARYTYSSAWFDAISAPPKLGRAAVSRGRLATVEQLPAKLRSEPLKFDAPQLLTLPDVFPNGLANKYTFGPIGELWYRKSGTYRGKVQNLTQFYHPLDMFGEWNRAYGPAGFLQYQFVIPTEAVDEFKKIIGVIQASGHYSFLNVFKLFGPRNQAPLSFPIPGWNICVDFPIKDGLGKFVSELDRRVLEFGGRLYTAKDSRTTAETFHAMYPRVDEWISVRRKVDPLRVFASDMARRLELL

Work on `O=c1[nH]cc(F)c(=O)[nH]1` [5-Fluorouracil, reference compound] yielded an IC50 [1, 3] of 53.7 µg/mL (≈ 413 µM) and an inhibition at 50 µg/mL ([1]; Mus musculus, NIH3T3, MTT assay, 50 μg/mL, read-out: percentage inhibition of 3T3 cells) greater than 42%.

With `O=C(CC(=O)Nc1ccccc1)Cn1cc(CSc2nc3ccccc3o2)nn1` [BOK-1, 4–(4-((Benzo[d]oxazol-2-ylthio)methyl)-1H-1,2,3-triazol-1-yl)-3-oxo-N-phenyl butanamide] the IC50 (DprE1) was 5.2 ± 0.6 µM, the Selectivity index [1] was 37.07 and the IC50 [1, 3] was 118 µg/mL (≈ 291 µM). The MIC50 [2] was no more than 6.25 µg/mL.

For `Cc1ccccc1NC(=O)CC(=O)Cn1cc(CSc2nc3ccccc3o2)nn1` [BOK-2, 4–(4-((Benzo[d]oxazol-2-ylthio)methyl)-1H-1,2,3-triazol-1-yl)-3-oxo-N-(o-tolyl) butanamide], the IC50 (DprE1) was 2 µM and 2.2 µM, the Selectivity index [1] was 57.77 and the “3T3 cell IC50” value ([1]; MTT assay, mouse fibroblast 3T3 cells, cytotoxicity) was 103.92 µg/mL. The IC50 [1, 3] was 104 µg/mL (≈ 247 µM).

`O=C(CC(=O)Nc1ccccc1F)Cn1cc(CSc2nc3ccccc3o2)nn1` [BOK-3, 4–(4-((Benzo[d]oxazol-2-ylthio)methyl)-1H-1,2,3-triazol-1-yl)-N-(2-fluorophenyl)-3-oxobutanamide] showed an IC50 (DprE1) of 3 ± 0.6 µM, a Selectivity index [1] of 46.75 and an IC50 [1, 3] of 112 µg/mL (≈ 263 µM).

For `O=C(CC(=O)Nc1cccc(Cl)c1)Cn1cc(CSc2nc3ccccc3o2)nn1` [BOK-4, 4–(4-((Benzo[d]oxazol-2-ylthio)methyl)-1H-1,2,3-triazol-1-yl)-N-(3-chlorophenyl)-3-oxobutanamide], the melting point was 165 to 169 °C, the “Mtb H37Rv MIC50” value [2] was 6.9 µg/mL and the MIC50 [2] was 3.7 µg/mL (≈ 8.37 µM).

For `Cc1ccc(NC(=O)CC(=O)Cn2cc(CSc3nc4ccccc4o3)nn2)cc1` [BOK-5, 4–(4-((Benzo[d]oxazol-2-ylthio)methyl)-1H-1,2,3-triazol-1-yl)-3-oxo-N-(p-tolyl) butanamide], the melting point was 175 to 179 °C and the MIC50 [2] was 11.6 µg/mL (≈ 27.5 µM).

In the case of `O=C(CC(=O)Nc1ccc(C(F)(F)F)cc1)Cn1cc(CSc2nc3ccccc3o2)nn1` [BOK-6, 4–(4-((Benzo[d]oxazol-2-ylthio)methyl)-1H-1,2,3-triazol-1-yl)-3-oxo-N-(4-(trifluoromethyl)phenyl)butanamide], the melting point is reported as 185 to 189 °C and the MIC50 [2] is reported as 39.6 µg/mL (≈ 83.3 µM).

With `O=C(CC(=O)Nc1ccc(Cl)cc1)Cn1cc(CSc2nc3ccccc3o2)nn1` [BOK-7, 4–(4-((Benzo[d]oxazol-2-ylthio)methyl)-1H-1,2,3-triazol-1-yl)-N-(4-chlorophenyl)-3-oxo butanamide] the melting point was 171 to 174 °C, the “Mtb H37Rv MIC50” value [2] was 6.7 µg/mL and the MIC50 [2] was 6.9 µg/mL (≈ 15.6 µM).

Compound `O=C(CC(=O)Nc1ccc(Br)cc1)Cn1cc(CSc2nc3ccccc3o2)nn1` [BOK-8, 4–(4-((Benzo[d]oxazol-2-ylthio)methyl)-1H-1,2,3-triazol-1-yl)-N-(4-bromophenyl)-3-oxo butanamide] has a melting point of 210 to 214 °C and an MIC50 [2] of 44.1 µg/mL (≈ 90.7 µM).

For `COc1ccc(NC(=O)CC(=O)Cn2cc(CSc3nc4ccccc4o3)nn2)cc1` [BOK-9, 4–(4-((Benzo[d]oxazol-2-ylthio)methyl)-1H-1,2,3-triazol-1-yl)-N-(4-methoxyphenyl)-3-oxo butanamide], the melting point was 169 to 172 °C and the MIC50 [2] was 10.6 µg/mL (≈ 24.2 µM).

Compound `CCOc1ccc(NC(=O)CC(=O)Cn2cc(CSc3nc4ccccc4o3)nn2)cc1` [BOK-10, 4–(4-((Benzo[d]oxazol-2-ylthio)methyl)-1H-1,2,3-triazol-1-yl)-N-(4-ethoxyphenyl)-3-oxo butanamide] has a melting point of 175 to 179 °C and an MIC50 [2] of 42.6 µg/mL (≈ 94.4 µM).

In the case of `O=C(Cn1cc(CSc2nc3ccccc3o2)nn1)c1ccccc1` [BOP-1, 2–(4-((Benzo[d]oxazol-2-ylthio)methyl)-1H-1,2,3-triazol-1-yl)-1-phenylethan-1-one], the IC50 (DprE1) is reported as 3.3 ± 1 µM, the Selectivity index [1] is reported as 8.76 and the IC50 [1, 3] is reported as 51.7 µg/mL (≈ 148 µM). For the same compound, the MIC50 [2] was no more than 6.25 µg/mL.

For `COc1ccc(C(=O)Cn2cc(CSc3nc4ccccc4o3)nn2)cc1` [BOP-2, 2–(4-((Benzo[d]oxazol-2-ylthio)methyl)-1H-1,2,3-triazol-1-yl)-1–(4-methoxyphenyl)ethan-1-one], the melting point was 148 to 152 °C and the MIC50 [2] was 19.1 µg/mL (≈ 50.1 µM).

Compound `Cc1ccc(C(=O)Cn2cc(CSc3nc4ccccc4o3)nn2)cc1` [BOP-3, 2–(4-((Benzo[d]oxazol-2-ylthio)methyl)-1H-1,2,3-triazol-1-yl)-1-(p-tolyl)ethan-1-one] has a melting point of 142 to 146 °C and an MIC50 [2] of 20.5 µg/mL (≈ 56.3 µM).

`O=C(Cn1cc(CSc2nc3ccccc3o2)nn1)c1ccc(F)cc1` [BOP-4, 2–(4-((Benzo[d]oxazol-2-ylthio)methyl)-1H-1,2,3-triazol-1-yl)-1–(4-fluorophenyl)ethan-1-one] showed an IC50 (DprE1) of 3.1 ± 0.7 µM, a Selectivity index [1] of 11.62 and an IC50 [1, 3] of 55.8 µg/mL (≈ 151 µM). The MIC50 [2] was no more than 6.25 µg/mL.

With `O=C(Cn1cc(CSc2nc3ccccc3o2)nn1)c1ccc([N+](=O)[O-])cc1` [BOP-5, 2–(4-((Benzo[d]oxazol-2-ylthio)methyl)-1H-1,2,3-triazol-1-yl)-1–(4-nitrophenyl)ethan-1-one] the melting point was 142 to 146 °C and the MIC50 [2] was 32.3 µg/mL (≈ 81.7 µM).

Work on `CO[C@H]1/C=C/O[C@@]2(C)Oc3c(C)c(O)c4c(O)c(c(/C=N/N5CCN(C)CC5)c(O)c4c3C2=O)NC(=O)/C(C)=C\C=C\[C@H](C)[C@H](O)[C@@H](C)[C@@H](O)[C@@H](C)[C@H](OC(C)=O)[C@@H]1C` [Rifampicin, reference compound] yielded an MIC50 [2] of less than 0.004 µg/mL.

In the case of `CCOC(=O)NC(=O)c1ccsc1NC(=O)c1nc2ccccc2s1` [TCA-1, reference compound], the IC50 (DprE1) is reported as 3 ± 0.2 µM.
